What was measured:
[1] = Example 3 Phase 2 study of oral ganaxolone in women with PPD: expected plasma concentrations; type: in vivo, human
Description: Approximately 172 women aged 18 to 48 years with PPD are screened, and approximately 88 subjects are enrolled into a Phase 2 clinical study. The enrolled subjects are assigned to five groups.
In the first group, approximately 8 subjects are titrated to a total daily oral dose of 900 mg ganaxolone per day (administered in three divided doses per day) over 10 days, followed by a taper over 4 days. For this group ganaxolone doses are titrated from 225 mg on Day 1 to a total daily oral dose of 900 mg starting on Day 7. The ganaxolone mean trough plasma concentrations during the Days 8, 9, and 10 are predicted to be about 40 ng/ml, based on PK modelling. Bedtime doses are selected to be higher than the daytime doses, and are expected to yield plasma mean peak concentrations up to 180 ng/ml during the night on Days 8, 9 and 10.
In the third group, approximately 20 subjects receive ganaxolone administered orally at a dose of 675 mg QHS for 28 days, followed by a taper over 4 days. The trough ganaxolone levels are expected to be below 40 ng/ml.
In the fourth group, approximately 20 subjects receive orally, on the first 2 days, ganaxolone capsules 675 mg at dinner time and 675 mg at bedtime (for a total of 1,350 mg per day on the first 2 days), followed by 26 days of ganaxolone capsules 1,125 mg at dinner time (high fat diet), and a taper over 4 days. […]

[2] = system: women with postpartum depression; test: Mean change in HAM-D score, ganaxolone versus placebo treatment groups; type: in vivo, human; details: worded as 'in certain embodiments'
Source text: The Hamilton Depression Rating Scale (HAM-D) is a commonly-used semi-structured clinician-rated instrument which assesses the range of symptoms that are most frequently observed in subjects with major depression. HAM-D has undergone a considerable amount of psychometric study and is accepted as a valid standard of symptom outcome assessment in studies of major depression. In the examples disclosed herein HAM-D was scored using the original 17-item HAM-D scale (HAM-D17).
Administration of ganaxolone in accordance with the methods of the present invention may provide a mean change in HAM-D score (i.e., least-squares (LS) mean reduction) at about 6 hours and/or at about 12 hours and/or about 24 hours (about 1 day) and/or about 48 hours (about 2 days) and/or about 60 hours (about 2.5 days) and/or about 72 hours (about 3 days) and/or about 11 days and/or about 30 days and/or about 34 days of from about 2 to about 17. In the preferred embodiments, the mean change in HAM-D score is greater than placebo.
The primary efficacy endpoint is HAM-D17 total score change from baseline to 60 hours post-infusion (on Day 3) for Cohorts 1-3 and to Day 29 for Cohort 6. The primary analysis in each cohort is done using the mITT set. Although the trial is not powered for inferential analysis and there is no consideration for control of type 1 error across multiple cohorts, a clinically meaningful numeric difference in means of 3-4 points, based on mITT analysis, between ganaxalone and placebo treatment groups is considered an indication of acceptable efficacy and is be the most influential outcome in the overall assessment of the efficacy of ganaxolone in treating PPD.

In the case of `CC(=O)[C@H]1CC[C@H]2[C@@H]3CC[C@H]4C[C@](C)(O)CC[C@]4(C)[C@H]3CC[C@]12C` [ganaxolone, 3α-hydroxy-3β-methyl-5α-pregnan-20-one], the “Expected plasma mean peak concentrations during the night” value ([1]; first group, Days 8, 9 and 10) is reported as “up to 180 ng/ml”, the “Expected trough ganaxolone levels” value ([1]; third group: 675 mg QHS orally for 28 days) is reported as “below 40 ng/ml” and the “Difference between ganaxolone and placebo treatment groups in mean change in HAM-D score” value ([2]; 12 hours) is reported as 0.7. For the same compound, the “Difference between ganaxolone and placebo treatment groups in mean change in HAM-D score” value ([2]; 24 hours) was 1.5, the “Difference between ganaxolone and placebo treatment groups in mean change in HAM-D score” value ([2]; 48 hours) was 5.6 and the “Difference between ganaxolone and placebo treatment groups in mean change in HAM-D score” value ([2]; 60 hours) was 4.2. For the same compound, the “Difference between ganaxolone and placebo treatment groups in mean change in HAM-D score” value ([2]; 72 hours) was 2.9, the “Difference between ganaxolone and placebo treatment groups in mean change in HAM-D score” value ([2]; 11 days) was 5.9 and the “Difference between ganaxolone and placebo treatment groups in mean change in HAM-D score” value ([2]; 34 days) was 4.1.

From patent US11266662B2, “Ganaxolone for use in prophylaxis and treatment of postpartum depression” (Marinus Pharmaceuticals, Inc., priority 2018, dated 2022)
